Experimental data from ChEMBL document CHEMBL4725390, “Asymmetrically Substituted Quadruplex-Binding Naphthalene Diimide Showing Potent Activity in Pancreatic Cancer Models” (ACS Med Chem Lett, 2020).
Activity calls are given as the source filed them. The calls are words filed in the database; no cut-off is given here.

Experiments:
[1] = test system: MIA PaCa-2; experiment: Potency index, ratio of 2,7-bis(3-morpholinopropyl)-4-((2-(pyrrolidin-1-yl)ethyl)amino)benzo[lmn][3,8]phenanthroline-1,3,6,8(2H,7H)-tetraone IC50 to test compound IC50 for human MIAPaCa2 cells measured after 96 hrs by SRB assay; type: functional
[2] = Toxicity in mouse xenografted with human MIAPaCa2 cells assessed as drug tolerability at 1 mg/kg, iv administered twice per week for 28 days; type: organism-based; settings: in vivo, 672 h, time 28 day
[3] = test system: MIA PaCa-2; experiment: Downregulation of TNF signaling pathway related gene expression in human MIAPaCa2 cells at 40 nM after 6 hrs by RNA sequencing analysis; type: functional, cell-based
[4] = test system: MIA PaCa-2; experiment: Antitumor activity against human MIAPaCa2 cells xenografted in mouse assessed as mean tumor volume at 1 mg/kg, iv administered once per week for 28 days and measured at day 53 by Caliper method (reference value: 1.60 +/- 0.44 cm3); type: functional; settings: time 28 day
[5] = Toxicity in mouse xenografted with human MIAPaCa2 cells assessed as effect on cardiac clinical signs at 1 mg/kg, iv administered once per week for 28 days; type: organism-based; settings: in vivo, 672 h, time 28 day
[6] = Half life in mouse xenografted with human MIAPaCa2 cells at 0.96 mg/kg, iv administered as single dose; type: ADME, organism-based; settings: in vivo
[7] = test system: MIA PaCa-2; experiment: Downregulation of Rap1 signaling pathway related gene expression in human MIAPaCa2 cells at 40 nM after 6 hrs by RNA sequencing analysis; type: functional, cell-based
[8] = test system: MIA PaCa-2; experiment: Antitumor activity against human MIAPaCa2 cells xenografted in mouse assessed as change in tumor volume at 1 mg/kg, iv administered once per week for 28 days and measured at day 28 by Caliper method relative to control; type: functional; settings: time 28 day
[9] = test system: CAPAN-1; experiment: Potency index, ratio of 2,7-bis(3-morpholinopropyl)-4-((2-(pyrrolidin-1-yl)ethyl)amino)benzo[lmn][3,8]phenanthroline-1,3,6,8(2H,7H)-tetraone IC50 to test compound IC50 for human Capan1 cells measured after 96 hrs by SRB assay; type: functional
[10] = Clearance in mouse xenografted with human MIAPaCa2 cells at 0.96 mg/kg, iv administered as single dose; type: ADME, organism-based; settings: in vivo
[11] = Downregulation of DVL1 mRNA expression in human MIAPaCa2 cells at 40 nM after 24 hrs by RNA sequencing analysis relative to control; type: functional, MIA PaCa-2
[12] = test system: MIA PaCa-2; experiment: Downregulation of axon guidance related gene expression in human MIAPaCa2 cells at 40 nM after 24 hrs by RNA sequencing analysis; type: functional, cell-based
[13] = test system: Quadruplex DNA; experiment: Binding affinity to G4 quadruplex DNA in human PANC1 cells assessed as BG4 foci formation at 400 to 800 nM after 24 hrs by immunofluorescence based confocal microscopic analysis; type: cell-based; settings: PANC-1, dose nM 400-800, time 24.0 hrs
[14] = Downregulation of WNT5B mRNA expression in human MIAPaCa2 cells at 40 nM after 6 hrs by RNA sequencing analysis relative to control; type: functional, MIA PaCa-2
[15] = Downregulation of MAPK11 mRNA expression in human MIAPaCa2 cells at 40 nM after 6 hrs by RNA sequencing analysis relative to control; type: functional, MIA PaCa-2
[16] = test system: Mus musculus; experiment: Up regulation of cleaved PARP protein expression in mouse xenografted with human MIAPaCa2 cells at 1 mg/kg, iv administered once per week for 28 days measured on day 28 by Western blot analysis; type: functional, organism-based; settings: time 28.0 day
[17] = test system: PANC-1; experiment: Potency index, ratio of 2,7-bis(3-morpholinopropyl)-4-((2-(pyrrolidin-1-yl)ethyl)amino)benzo[lmn][3,8]phenanthroline-1,3,6,8(2H,7H)-tetraone IC50 to test compound IC50 for human PANC1 cells measured after 96 hrs by SRB assay; type: functional
[18] = Toxicity in mouse xenografted with human MIAPaCa2 cells assessed as effect on neuronal clinical signs at 1 mg/kg, iv administered twice per week for 28 days; type: organism-based; settings: in vivo, 672 h, time 28 day
[19] = test system: PANC-1; experiment: Antiproliferative activity against human PANC1 cells assessed as growth inhibition after 96 hrs by SRB assay; type: functional
[20] = Toxicity in mouse xenografted with human MIAPaCa2 cells assessed as effect on neuronal clinical signs at 1 mg/kg, iv administered once per week for 28 days; type: organism-based; settings: in vivo, 672 h, time 28 day
[21] = test system: MIA PaCa-2; experiment: Downregulation of Rap1 signaling pathway related gene expression in human MIAPaCa2 cells at 40 nM after 24 hrs by RNA sequencing analysis; type: functional, cell-based
[22] = Downregulation of GLI1 mRNA expression in human MIAPaCa2 cells at 40 nM after 6 hrs by RNA sequencing analysis relative to control; type: functional, MIA PaCa-2
[23] = Toxicity in mouse xenografted with human MIAPaCa2 cells assessed as drug tolerability at 1 mg/kg, iv administered once per week for 28 days; type: organism-based; settings: in vivo, 672 h, time 28 day
[24] = Downregulation of MAPK11 mRNA expression in human MIAPaCa2 cells at 40 nM after 24 hrs by RNA sequencing analysis relative to control; type: functional, MIA PaCa-2
[25] = test system: MIA PaCa-2; experiment: Antitumor activity against human MIAPaCa2 cells xenografted in mouse assessed as change in tumor volume at 1 mg/kg, iv administered twice per week for 28 days and measured at day 53 by Caliper method relative to control; type: functional; settings: time 28 day
[26] = Downregulation of Bcl2 mRNA expression in human MIAPaCa2 cells at 40 nM after 6 hrs by RNA sequencing analysis relative to control; type: functional, MIA PaCa-2
[27] = test system: MIA PaCa-2; experiment: Antitumor activity against human MIAPaCa2 cells xenografted in mouse assessed as change in tumor volume at 15 mg/kg, iv administered twice per week for 28 days and measured at day 53 by Caliper method relative to control; type: functional; settings: time 28 day
[28] = AUC (infinity) in mouse xenografted with human MIAPaCa2 cells at 0.96 mg/kg, iv administered as single dose; type: ADME, organism-based; parameters: time infinity, route intravenous, dose 0.96 mg/kg; settings: in vivo
[29] = Downregulation of DVL1 mRNA expression in human MIAPaCa2 cells at 40 nM after 6 hrs by RNA sequencing analysis relative to control; type: functional, MIA PaCa-2
[30] = Apparent volume of distribution in mouse xenografted with human MIAPaCa2 cells at 0.96 mg/kg, iv administered as single dose; type: ADME, organism-based; settings: in vivo, read-out: Vz
[31] = test system: Mus musculus; experiment: Down regulation of MAPK11 expression in mouse xenografted with human MIAPaCa2 cells at 1 mg/kg, iv administered twice per week for 28 days and measured on day 28 by Western blot analysis; type: functional, organism-based; settings: time 28.0 day
[32] = test system: MIA PaCa-2; experiment: Antitumor activity against human MIAPaCa2 cells xenografted in mouse assessed as mean tumor volume at 1 mg/kg, iv administered twice per week for 28 days and measured at day 28 by Caliper method (reference value: 0.45 +/- 0.18 cm3); type: functional; settings: time 28 day
[33] = Downregulation of APC2 mRNA expression in human MIAPaCa2 cells at 40 nM after 6 hrs by RNA sequencing analysis relative to control; type: functional, MIA PaCa-2
[34] = test system: MIA PaCa-2; experiment: Downregulation of NF-kappaB signalling pathway related gene expression in human MIAPaCa2 cells at 40 nM after 6 hrs by RNA sequencing analysis; type: functional, cell-based
[35] = Downregulation of GLI1 mRNA expression in human MIAPaCa2 cells at 40 nM after 24 hrs by RNA sequencing analysis relative to control; type: functional, MIA PaCa-2

O=C1c2cc(-c3ccc(CN4CCCC4)cc3)c3c4c(cc(NCCN5CCCC5)c(c24)C(=O)N1CCCN1CCOCC1)C(=O)N(CCCN1CCOCC1)C3=O [QN-302]
Ratio IC50 [1]: 10
Activity [2]: Non-Toxic
inhibition [3]: Active
Activity [4]: 0.17 cm3
Activity [5]: Non-Toxic
half-life [6]: 37 h
inhibition [7]: Active
Activity [8]: -82.2%
Ratio IC50 [9]: 5
clearance [10]: 2.2 mL/min/kg
log2FC [11]: 0.77
inhibition [12]: Active
Activity [13]: inactive
log2FC [14]: 2.25
log2FC [15]: 0.71
Activity [16]: Active
Ratio IC50 [17]: 10
Activity [18]: Non-Toxic
GI50 [19]: 1.4 nM
Activity [20]: Non-Toxic
inhibition [21]: Active
log2FC [22]: 0.66
Activity [23]: Non-Toxic
log2FC [24]: 1.72
Activity [25]: -90.6%
log2FC [26]: 0.58
Activity [27]: -78.1%
AUC(0-inf) [28]: 8270 ng·h/mL
log2FC [29]: 1.48
Vd [30]: 6.9 L/kg
inhibition [31]: Active
Activity [32]: 0.06 cm3
log2FC [33]: 1.88
inhibition [34]: Active
log2FC [35]: 1.84
